Data as given in patent US20180051017A1, “AGENT FOR TREATMENT OF SCHIZOPHRENIA” (Sumitomo Dainippon Pharma Co., Ltd., priority 2002, published 2018).
Counter-ions that a name gives are not always drawn.

Test system: patients with schizophrenia in the acute exacerbation phase
Assay: First stage phase II clinical trial: safety (adverse events, serious adverse events, side effects, ECG, laboratory tests)
Format: in vivo, human
Method: According to the procedures as shown in Table 1 as described below, the placebo-controlled double blind experiment was done on 149 patients with schizophrenia in the acute exacerbation phase at 15 facilities in USA. The efficacy and safeness were studied when SM-13496 at a dose of 40 mg or 120 mg, or a placebo was orally administered once a day for 6 weeks after placebo washout.

[1] = 120 mg orally once a day for 6 weeks, 49 subjects

## O=C1[C@@H]2[C@@H]3CC[C@@H](C3)[C@@H]2C(=O)N1C[C@@H]1CCCC[C@H]1CN1CCN(c2nsc3ccccc23)CC1 [SM-13496, (1R,2S,3R,4S)-N-[(1R,2R)-2-[4-(1,2-benzoisothiazol-3-yl)-1-piperazinyl-methyl]-1-cyclohexylmethyl]-2,3-bicyclo[2.2.1]heptanedicarboximide hydrochloride]
[1]
  Number of subjects showing serious adverse events (%): 3 (6) number of subjects (%)
  Number of subjects who drop out from the trial due to adverse events (%): 6 (12) number of subjects (%)
120 mg, 6 weeks, 49 subjects
  Occurrence of adverse event: Akathisia: 7 (14) number of subjects (%)
  Occurrence of adverse event: Digestive disturbance: 2 (4) number of subjects (%)
  Occurrence of adverse event: Drowsiness: 5 (10) number of subjects (%)
  Occurrence of adverse event: Exacerbation of schizophrenia: 1 (2) number of subjects (%)
  Occurrence of adverse event: Free-floating vertigo (excluding rotatory vertigo): 5 (10) number of subjects (%)
  Occurrence of adverse event: Headache: 3 (6) number of subjects (%)
  Occurrence of adverse event: Nausea: 11 (22) number of subjects (%)
  Occurrence of adverse event: Suppression: 7 (14) number of subjects (%)
  Occurrence of serious adverse event: Exacerbation of paranoia: 0 (0) number of subjects (%)
  Occurrence of serious adverse event: Exacerbation of schizophrenia: 1 (2) number of subjects (%)
  Occurrence of serious adverse event: Paranoid schizophrenia: 1 (2) number of subjects (%)
  Occurrence of serious adverse event: Psychosis aggravated: 0 (0) number of subjects (%)
  Occurrence of side effects (%): 35 (71) number of subjects (%)
  Serious adverse events: Total (%): 2 (4) number of subjects (%)
  Side effect: Abdominal pain (Gastroenteric disturbance): 0 (0) number of subjects (%)
  Side effect: Abnormal electrocardiogram (Laboratory assay): 0 (0) number of subjects (%)
  Side effect: Abnormal liver function tests (Laboratory assay): 1 (2) number of subjects (%)
  Side effect: Agitation (Mental disturbance): 1 (2) number of subjects (%)
  Side effect: Agitation aggravated (Mental disturbance): 2 (4) number of subjects (%)
  Side effect: Akathisia (Nervous system disorder): 7 (14) number of subjects (%)
  Side effect: Akathisia aggravated (Nervous system disorder): 0 (0) number of subjects (%)
  Side effect: Anarthria (Nervous system disorder): 1 (2) number of subjects (%)
  Side effect: Anorexia (Metabolic disturbances and nutritional disturbance): 0 (0) number of subjects (%)
  Side effect: Anxiety aggravated (Mental disturbance): 0 (0) number of subjects (%)
  Side effect: Articular rigidity (Musculoskeletal system and connective tissue disorder): 0 (0) number of subjects (%)
  Side effect: Blurred vision (Ocular disturbance): 1 (2) number of subjects (%)
  Side effect: Breathing difficulty (Disturbance in respiratory organ, chest and mediastinum): 1 (2) number of subjects (%)
  Side effect: Cervical rigidity (Musculoskeletal system and connective tissue disorder): 0 (0) number of subjects (%)
  Side effect: Cogwheel rigidity (Nervous system disorder): 1 (2) number of subjects (%)
  Side effect: Constipation (Gastroenteric disturbance): 0 (0) number of subjects (%)
  Side effect: Decrease in appetite (Metabolic disturbances and nutritional disturbance): 1 (2) number of subjects (%)
  Side effect: Diarrhea (Gastroenteric disturbance): 0 (0) number of subjects (%)
  Side effect: Drowsiness (Nervous system disorder): 5 (10) number of subjects (%)
  Side effect: Dry eye (Ocular disturbance): 0 (0) number of subjects (%)
  Side effect: Dry mouth (Gastroenteric disturbance): 0 (0) number of subjects (%)
  Side effect: Dyspepsia (Gastroenteric disturbance): 2 (4) number of subjects (%)
  Side effect: Dystonic reaction (Nervous system disorder): 0 (0) number of subjects (%)
  Side effect: Exacerbation of insomnia (Mental disturbance): 1 (2) number of subjects (%)
  Side effect: External otitis (Infection and parasitosis): 0 (0) number of subjects (%)
  Side effect: Extrapyramidal disease (Nervous system disorder): 3 (6) number of subjects (%)
  Side effect: Fatigue (Total disability and local condition): 1 (2) number of subjects (%)
  Side effect: Fatigue aggravated (Total disability and local condition): 0 (0) number of subjects (%)
  Side effect: Flatulence (Gastroenteric disturbance): 0 (0) number of subjects (%)
  Side effect: Flushing (Vascular diseases): 0 (0) number of subjects (%)
  Side effect: Free-floating vertigo (excluding rotatory vertigo) (Nervous system disorder): 5 (10) number of subjects (%)
  Side effect: Frequent urination (Renal Injury and urinary disorder): 0 (0) number of subjects (%)
  Side effect: Glossoplegia (Nervous system disorder): 0 (0) number of subjects (%)
  Side effect: Headache (Nervous system disorder): 1 (2) number of subjects (%)
  Side effect: Heavy feeling (Musculoskeletal system and connective tissue disorder): 0 (0) number of subjects (%)
  Side effect: Hot flashes (Vascular diseases): 1 (2) number of subjects (%)
  Side effect: Hot sensation (Total disability and local condition): 0 (0) number of subjects (%)
  Side effect: Increase in creatine phosphokinase level in the blood (Laboratory assay): 0 (0) number of subjects (%)
  Side effect: Increase in prolactin level in the blood (Laboratory assay): 1(2) number of subjects (%)
  Side effect: Increase in total protein (Laboratory assay): 0 (0) number of subjects (%)
  Side effect: Insomnia (Mental disturbance): 1 (2) number of subjects (%)
  Side effect: Laryngopharynx pain (Disturbance in respiratory organ, chest and mediastinum): 0 (0) number of subjects (%)
  Side effect: Loose stools (Gastroenteric disturbance): 1 (2) number of subjects (%)
  Side effect: Melalgia (Musculoskeletal system and connective tissue disorder): 1 (2) number of subjects (%)
  Side effect: Muscle stiffness (Musculoskeletal system and connective tissue disorder): 1 (2) number of subjects (%)
  Side effect: Myalgic pain (Musculoskeletal system and connective tissue disorder): 1 (2) number of subjects (%)
  Side effect: Nausea (Gastroenteric disturbance): 9 (18) number of subjects (%)
  Side effect: Nightmare (Mental disturbance): 1 (2) number of subjects (%)
  Side effect: Palpitation (Heart problems): 1 (2) number of subjects (%)
  Side effect: Parotiditis (Infection and parasitosis): 0 (0) number of subjects (%)
  Side effect: Polyuria (Renal Injury and urinary disorder): 0 (0) number of subjects (%)
  Side effect: Pruritus (Disturbance in Skin and Hypodermis): 0 (0) number of subjects (%)
  Side effect: Psychosis aggravated (Mental disturbance): 2 (4) number of subjects (%)
  Side effect: Restlessness (Mental disturbance): 1 (2) number of subjects (%)
  Side effect: Salivary hypersecretion (Gastroenteric disturbance): 0 (0) number of subjects (%)
  Side effect: Sinus tachycardia (Heart problems): 1 (2) number of subjects (%)
  Side effect: Sleepiness (Total disability and local condition): 2 (4) number of subjects (%)
  Side effect: Suppression (Nervous system disorder): 7 (14) number of subjects (%)
  Side effect: Tinea pedis (Infection and parasitosis): 1 (2) number of subjects (%)
  Side effect: Tongue disturbance (Gastroenteric disturbance): 0 (0) number of subjects (%)
  Side effect: Tremor (Nervous system disorder): 3 (6) number of subjects (%)
  Side effect: Trismus (Nervous system disorder): 1 (2) number of subjects (%)
  Side effect: Urinary tract infection (Infection and parasitosis): 0 (0) number of subjects (%)
  Side effect: Vomiting (Gastroenteric disturbance): 3 (6) number of subjects (%)
  Side effect: Weight loss (Laboratory assay): 2 (4) number of subjects (%)
120 mg-treated group
  Akathisia (adverse event): 14%
  Digestive disturbance compared to the placebo-treated group: less observed
  Exacerbation of schizophrenia (adverse event): 2%
  Nausea compared to the other groups: more observed
  Ratio of the subjects showing suppression: 14%
  Serious adverse events: 2 cases
SM-13496-treated groups
  Change in body temperature, respiration rate, funduscopic examination and slit-lamp microscopy: no clinically significant change
  Occurrence of dystonic reaction: less than 4%
  Prolactin level in the blood: moderate increase
Both groups treated by two doses
  Number of subjects who dropped out from the trial due to the adverse events compared to placebo: higher
Groups treated by SM-13496
  Occurrence of the adverse events compared to placebo: the same as that in the placebo-treated group
